Assay results from ChEMBL document CHEMBL5390209, “Spinosyn A and Its Derivative Inhibit Colorectal Cancer Cell Growth via the EGFR Pathway” (J Nat Prod, 2023).
Active and inactive are the calls of the source. No cut-off for these calls is given here.

Key:
HT-29 [1] = test: Antitumor activity against human HT-29 cells xenografted Balb/c mouse assessed as reduction in tumor cell density at 2.5 mg/kg/day, ip administrated for every other day and measured after 28 days by Hematoxylin and Eosin staining based method; assay type: functional, organism-based; conditions: time 28.0 day
[2] = molecular target: Epidermal growth factor receptor (Homo sapiens) (UniProt P00533); test: Inhibition of EGFR in human SW480 cells assessed as reduction in STAT3 phosphorylation level at 0.5 to 2 uM incubated for 24 hrs by Western blot analysis; assay type: cell-based; conditions: dose 0.5-2 µM
Chain of Epidermal growth factor receptor (Homo sapiens) (P00533 whole entry): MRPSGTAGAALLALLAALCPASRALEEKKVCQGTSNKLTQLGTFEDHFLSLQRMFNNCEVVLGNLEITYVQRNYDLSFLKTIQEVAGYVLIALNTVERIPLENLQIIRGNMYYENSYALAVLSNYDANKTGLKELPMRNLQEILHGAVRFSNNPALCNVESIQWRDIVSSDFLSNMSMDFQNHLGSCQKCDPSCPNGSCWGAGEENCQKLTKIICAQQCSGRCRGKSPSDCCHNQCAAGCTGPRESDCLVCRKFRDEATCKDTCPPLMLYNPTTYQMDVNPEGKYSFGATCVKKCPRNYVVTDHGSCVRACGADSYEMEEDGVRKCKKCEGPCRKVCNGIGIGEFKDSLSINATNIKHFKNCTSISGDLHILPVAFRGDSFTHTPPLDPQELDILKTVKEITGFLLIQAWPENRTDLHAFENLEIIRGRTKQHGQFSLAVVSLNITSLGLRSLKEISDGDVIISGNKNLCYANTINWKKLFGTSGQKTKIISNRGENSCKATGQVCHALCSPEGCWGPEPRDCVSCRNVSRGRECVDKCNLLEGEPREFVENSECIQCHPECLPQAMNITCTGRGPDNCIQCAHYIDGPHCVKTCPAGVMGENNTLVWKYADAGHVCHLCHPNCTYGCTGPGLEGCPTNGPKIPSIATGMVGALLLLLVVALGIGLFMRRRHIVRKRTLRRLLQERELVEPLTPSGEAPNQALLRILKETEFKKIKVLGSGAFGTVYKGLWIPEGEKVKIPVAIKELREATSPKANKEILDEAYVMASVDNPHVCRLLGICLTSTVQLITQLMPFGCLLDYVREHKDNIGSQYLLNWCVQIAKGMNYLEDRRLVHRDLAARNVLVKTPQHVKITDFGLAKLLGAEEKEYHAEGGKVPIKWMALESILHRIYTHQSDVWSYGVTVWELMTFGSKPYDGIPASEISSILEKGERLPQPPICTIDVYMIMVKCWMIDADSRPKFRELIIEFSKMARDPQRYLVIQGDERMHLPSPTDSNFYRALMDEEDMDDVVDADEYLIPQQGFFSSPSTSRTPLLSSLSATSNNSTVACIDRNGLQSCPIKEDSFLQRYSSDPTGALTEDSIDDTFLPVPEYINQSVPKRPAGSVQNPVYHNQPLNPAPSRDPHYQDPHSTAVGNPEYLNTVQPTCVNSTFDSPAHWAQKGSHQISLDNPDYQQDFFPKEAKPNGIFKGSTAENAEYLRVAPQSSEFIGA

[3] = Toxicity in human HT-29 cells xenografted Balb/c mouse assessed as change in heart pathology at 2.5 mg/kg/day, ip administrated for every other day and measured after 28 days; assay type: organism-based; conditions: in vivo, 672 h, time 28 day
HT-29 [4] = test: Inhibition of colony formation in double EGFR/HER2 knockdown human HT-29 cells at 0.75 uM incubated for 14 days by crystal violet staining based colony formation assay; assay type: functional, cell-based; conditions: time 14.0 day
[5] = molecular target: Epidermal growth factor receptor (Homo sapiens) (UniProt P00533); test: Inhibition of EGFR in human HT-29 cells assessed as reduction in MEK1/2 phosphorylation level at 2 uM by Western blotting analysis; assay type: cell-based; conditions: time 3-15 hrs, TDE = time-dependent effect
SW480 [6] = test: Inhibition of colony formation in EGFR knockdown human SW480 cells at 0.75 uM incubated for 14 days by crystal violet staining based colony formation assay; assay type: functional, cell-based; conditions: time 14.0 day
LoVo = test: Inhibition of colony formation in human LoVo cells at 0.75 uM incubated for 14 days by crystal violet staining based colony formation assay; assay type: functional, cell-based; conditions: time 14.0 day
[7] = molecular target: Epidermal growth factor receptor (Homo sapiens) (UniProt P00533); test: Inhibition of EGFR in human SW480 cells assessed as reduction in MEK1/2 phosphorylation level at 0.5 to 2 uM incubated for 24 hrs by Western blotting analysis; assay type: cell-based; conditions: dose 0.5-2 µM
[8] = Toxicity in human HT-29 cells xenografted Balb/c mouse assessed as change in spleen pathology at 2.5 mg/kg/day, ip administrated for every other day and measured after 28 days; assay type: organism-based; conditions: in vivo, 672 h, time 28 day
[9] = molecular target: Epidermal growth factor receptor (Homo sapiens) (UniProt P00533); test: Inhibition of EGFR in human SW480 cells assessed as reduction in Erk1/2 phosphorylation level at 0.5 to 2 uM incubated for 24 hrs by Western blotting analysis; assay type: cell-based; conditions: dose 0.5-2 µM
[10] = molecular target: Epidermal growth factor receptor (Homo sapiens) (UniProt P00533); test: Inhibition of EGFR in human HT-29 cells at 15 uM by Western blot analysis; assay type: cell-based; conditions: time 3-15 hrs, TDE = time-dependent effect
SW480 [11] = test: Inhibition of colony formation in human SW480 cells at 6 uM incubated for 14 days by crystal violet staining based colony formation assay; assay type: functional, cell-based; conditions: time 14.0 day
[12] = Toxicity in human HT-29 cells xenografted Balb/c mouse assessed as change in kidney pathology at 5 mg/kg/day, ip administrated for every other day and measured after 28 days; assay type: organism-based; conditions: in vivo, 672 h, time 28 day
[13] = molecular target: Epidermal growth factor receptor (Homo sapiens) (UniProt P00533); test: Inhibition of EGFR in human HT-29 cells assessed as reduction in ratio of p-EGFR/EGFR level at 15 uM measured after 3 to 15 hrs by Western blotting analysis; assay type: cell-based; conditions: time 3-15 hrs
SW480 [14] = test: Inhibition of colony formation in EGFR knockdown human SW480 cells at 6 uM incubated for 14 days by crystal violet staining based colony formation assay; assay type: functional, cell-based; conditions: time 14.0 day
[15] = Toxicity in human HT-29 cells xenografted Balb/c mouse assessed as change in lung pathology at 5 mg/kg/day, ip administrated for every other day and measured after 28 days; assay type: organism-based; conditions: in vivo, 672 h, time 28 day
[16] = molecular target: Epidermal growth factor receptor (Homo sapiens) (UniProt P00533); test: Inhibition of EGFR in human HT-29 cells assessed as reduction in MEK1/2 phosphorylation level at 3.75 to 15 uM incubated for 24 hrs by Western blotting analysis; assay type: cell-based; conditions: dose 3.75-15 µM

| Structure (SMILES) | Activity (HT-29 [1]) | inhibition [2] | Activity [3] | Activity (HT-29 [4]) | inhibition [5] | Activity (SW480 [6]) | inhibition (LoVo) | inhibition [7] | Activity [8] | inhibition [9] | inhibition [10] | inhibition (SW480 [11]) | Activity [12] | inhibition [13] | Activity (SW480 [14]) | Activity [15] | inhibition [16] |
| --- | --- | --- | --- | --- | --- | --- | --- | --- | --- | --- | --- | --- | --- | --- | --- | --- | --- |
| CC[C@H]1CCC[C@H](O[C@H]2CC[C@H](N(C)CC(O)CN3CCNCC3)[C@@H](C)O2)[C@@H](C)C(=O)C2=C[C@@H]3[C@@H](C=C[C@@H]4C[C@@H](O[C@@H]5O[C@@H](C)[C@H](OC)[C@@H](OC)[C@H]5OC)C[C@@H]34)[C@@H]2CC(=O)O1 (some centres not stated) | Active | Active | Non-Toxic | inactive | Tde | inactive | Active | Active | Non-Toxic | Active |  |  |  |  |  |  |  |
| CC[C@H]1CCC[C@H](O[C@H]2CC[C@H](N(C)C)[C@@H](C)O2)[C@@H](C)C(=O)C2=C[C@@H]3[C@@H](C=C[C@@H]4C[C@@H](O[C@@H]5O[C@@H](C)[C@H](OC)[C@@H](OC)[C@H]5OC)C[C@@H]34)[C@@H]2CC(=O)O1 [SPINOSYN A] |  |  |  |  |  |  |  |  |  |  | Tde | Active | Non-Toxic | Active | Active | Non-Toxic | Active |
